Reference: US12103915B2, “TEAD inhibitors and methods of uses thereof” (Insilico Medicine IP Limited, priority 2022, dated 2024)

Key:
TEAD2 = TEAD2 (Homo sapiens, UniProt Q15562); assay: Thermal shift assay TEAD2; type: binding
How it was run: (§1)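 Protein melt reactions contained TEAD1 (0.2 mg/ml final) or TEAD2 (0.08 mg/ml final) plus compound at 1 or 10 μM in 0.1% DMSO. Thermal unfolding was followed by dye fluorescence on a qPCR instrument.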

NCI-H226 cells = assay: Cell growth assay (CellTiter-Glo); type: cell-based, human; details: Homo sapiens, NCI-H226, 168 h, 7 days treatment, CellTiter-Glo luminescence, read-out: H226 CTG IC50
Experimental: Example A: Cell Growth Assay
CellTiter-Glo reagent (CTG reagent, Promega, G7573).
[…] Also seeding an extra plate as Day 0 control measurement. The microplates were incubated at 37° C., 5% CO2 overnight.
Compounds were 3-fold serial diluted in DMSO and final top-concentration was […], 10 points. 0.3% DMSO as vehicle control. In addition, […] of CTG reagent was added into the extra plate and incubated at room temperature for 30 minutes and detected luminescence signals as Day 0 control by using EnVision (PerkinElmer, 2104 Mutilabel Reader).
Incubated other compounds treated plates at 37° C. for another 7 days and […] of CTG reagent was added into the plates and incubated at room temperature for 30 minutes and detected luminescence signals.
Day 0 luminescence signals were used as negative control or baseline. • Signalday0=average luminescence signals of Day 0 control cells. • Signalblank control=average luminescence signals of blank control. • SignalDMSO vehicle control=average luminescence signals of Day 7 DMSO vehicle control cells. • Signalcpds treatment=luminescence signals of Day 7 compounds treatment cells. Inhibition %=1−(Signalcpds treatment−Signalblank control)/(SignalDMSO vehicle control−Signalblank control)*100.
(Inhibitory concentration 50% (IC50) and maximum inhibition % were calculated using dose response curves.

TEAD1 = TEAD1 (Homo sapiens, UniProt P28347); assay: Thermal shift assay TEAD1; type: binding
Chain of TEAD1 (P28347 whole entry, species assumed): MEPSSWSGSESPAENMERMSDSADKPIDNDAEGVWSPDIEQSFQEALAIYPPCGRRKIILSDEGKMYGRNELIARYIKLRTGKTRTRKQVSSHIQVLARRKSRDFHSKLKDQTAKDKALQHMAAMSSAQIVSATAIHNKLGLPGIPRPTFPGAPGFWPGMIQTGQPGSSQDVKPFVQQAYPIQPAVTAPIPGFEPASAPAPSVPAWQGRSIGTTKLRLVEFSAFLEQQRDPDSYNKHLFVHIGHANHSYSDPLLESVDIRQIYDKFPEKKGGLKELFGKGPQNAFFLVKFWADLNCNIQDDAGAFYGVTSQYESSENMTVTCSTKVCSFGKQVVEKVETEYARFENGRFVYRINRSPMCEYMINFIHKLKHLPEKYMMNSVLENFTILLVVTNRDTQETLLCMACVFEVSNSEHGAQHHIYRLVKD
How it was run: as §1

TEAD4 = TEAD4 (Homo sapiens, UniProt Q15561); assay: Thermal shift assay TEAD4; type: binding
Chain of TEAD4 (Q15561 whole entry, species assumed): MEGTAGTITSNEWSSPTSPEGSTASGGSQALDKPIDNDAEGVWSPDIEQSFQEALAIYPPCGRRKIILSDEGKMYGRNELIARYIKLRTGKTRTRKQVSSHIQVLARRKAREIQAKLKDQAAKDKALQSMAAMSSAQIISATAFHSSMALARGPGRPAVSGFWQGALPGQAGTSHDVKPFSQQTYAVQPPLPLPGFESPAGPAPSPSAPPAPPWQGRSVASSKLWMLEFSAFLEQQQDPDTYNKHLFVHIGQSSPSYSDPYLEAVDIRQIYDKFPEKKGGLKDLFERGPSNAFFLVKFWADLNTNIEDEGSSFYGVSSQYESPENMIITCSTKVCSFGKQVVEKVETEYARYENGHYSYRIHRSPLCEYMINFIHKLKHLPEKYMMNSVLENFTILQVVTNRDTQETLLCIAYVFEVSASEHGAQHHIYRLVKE
How it was run: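 Compounds tested at 1 and 10 μM (0.1% DMSO, PBS) against TEAD4 protein at 0.1 mg/ml final. Melting followed by thermal shift dye fluorescence during a qPCR instrument ramp.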

TEAD3 = TEAD3 (Homo sapiens, UniProt Q99594); assay: Thermal shift assay TEAD3; type: binding
Chain of TEAD3 (Q99594 whole entry, species assumed): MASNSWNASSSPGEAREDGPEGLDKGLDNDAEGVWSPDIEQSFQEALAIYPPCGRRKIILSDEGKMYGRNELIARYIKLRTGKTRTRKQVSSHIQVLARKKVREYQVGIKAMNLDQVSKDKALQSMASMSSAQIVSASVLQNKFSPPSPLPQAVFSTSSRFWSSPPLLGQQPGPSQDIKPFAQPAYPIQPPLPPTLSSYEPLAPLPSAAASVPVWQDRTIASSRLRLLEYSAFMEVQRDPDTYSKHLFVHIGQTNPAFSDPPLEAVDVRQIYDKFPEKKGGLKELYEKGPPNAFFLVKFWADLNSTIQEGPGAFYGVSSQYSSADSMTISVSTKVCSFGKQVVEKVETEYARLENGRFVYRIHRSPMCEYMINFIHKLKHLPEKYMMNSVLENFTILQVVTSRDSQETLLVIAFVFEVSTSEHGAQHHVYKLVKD
How it was run: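 Compounds at 1 or 10 μM (0.1% DMSO, PBS dilution) mixed with 0.1 mg/ml final TEAD3 and thermal shift dye, then run through a qPCR melt to follow protein unfolding.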

Chain of TEAD2 (Q15562 whole entry, species assumed): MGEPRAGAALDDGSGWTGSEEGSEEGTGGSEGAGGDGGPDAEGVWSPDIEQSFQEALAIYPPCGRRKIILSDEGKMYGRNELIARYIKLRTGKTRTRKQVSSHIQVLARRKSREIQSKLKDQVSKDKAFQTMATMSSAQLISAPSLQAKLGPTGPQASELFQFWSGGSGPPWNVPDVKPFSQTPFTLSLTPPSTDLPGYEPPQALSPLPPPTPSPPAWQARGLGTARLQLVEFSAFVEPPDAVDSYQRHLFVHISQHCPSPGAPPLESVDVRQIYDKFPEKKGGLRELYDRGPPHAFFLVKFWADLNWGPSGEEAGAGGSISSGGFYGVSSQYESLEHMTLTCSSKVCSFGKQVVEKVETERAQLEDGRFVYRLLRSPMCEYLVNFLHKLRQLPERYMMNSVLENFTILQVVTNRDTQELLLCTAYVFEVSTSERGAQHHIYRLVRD

| Structure (SMILES) | TEAD2 ΔTm (TEAD2) [°C] | IC50 (NCI-H226 cells) [nM] | TEAD1 ΔTm (TEAD1) [°C] | TEAD4 ΔTm (TEAD4) [°C] | TEAD3 ΔTm (TEAD3) [°C] |
| --- | --- | --- | --- | --- | --- |
| CNC(=O)[C@@H]1C[C@H]1c1cc(Oc2ccc(C(F)(F)F)cc2)cc2cn(C)nc12 (single isomer, unassigned) [Example 34a] | 10.2 | 100 to 500 | 5.2 | 5.2 | 1.4 |
| CN(C)C(=O)[C@@H]1CC1c1cc(-c2ccc(C(F)(F)F)cc2)cc2c1cnn2C (mixture of isomers) [Example 26] | 1.9 | 100 to 500 | 1.7 | 1.7 | 0.1 |
| CC(C)NC(=O)[C@@H]1CC1c1cc(Oc2ccc(C(F)(F)F)cc2)cc2cn(C)nc12 (mixture of isomers) [Example 56] | 9 | < 100 | 8.3 | 8.6 | 7.2 |
| Cn1cc2cc(Oc3ccc(C(F)(F)F)cc3)cc([C@@H]3C[C@H]3C(=O)NCC#N)c2n1 (single isomer, unassigned) [Example 66] | 14.7 | < 100 | 11.1 | 11.7 | 10.6 |
| Cn1cc2cc(Oc3ccc(C(F)(F)F)cc3)cc(C3C[C@H]3C(=O)N3C[C@H]4C[C@@H]3C[C@@H]4O)c2n1 (single isomer, unassigned) [Example 103c] | 11.1 | < 100 | 9.2 | 10.7 | 9.4 |
| CNC(=O)[C@@H]1C[C@H]1c1cc(Oc2ccc(C(F)(F)F)cc2)cc2c1NCCC2 (racemic) [Example 145] | 9.9 | 100 to 500 | 4.8 | 2.9 | 1.0 |
| Cn1cc2cc(-c3ccc(OC(F)(F)F)cc3)cc(C3C[C@H]3C(=O)O)c2n1 (mixture of isomers) [Example 12] | 9.4 | < 100 | 7.7 | 11.5 | 2.3 |
| Cn1ncc2c(C3C[C@H]3C(N)=O)cc(Oc3ccc(C(F)(F)F)cc3)cc21 (mixture of isomers) [Example 35] | 11.2 | < 100 | 5.4 | 6.1 | 5.4 |
| CNC(=O)[C@@H]1CC1c1cc(Oc2ccc(C(F)(F)F)cc2)cc2cn(C(F)F)nc12 (mixture of isomers) [Example 79] | 12.3 | 100 to 500 | 8.1 | 7.7 | 1.0 |
| CNC(=O)[C@@H]1CC1c1cc(-c2ccc(C(F)(F)F)cc2)cc2scnc12 (mixture of isomers) [Example 39] | 0 | 1000 to 30000 | 0 | 0 | 0 |
| Cn1cc2cc(Oc3ccc(C(F)(F)F)cc3)cc(C3C[C@H]3C(=O)N3C[C@H]4C[C@@H]3C[C@H]4O)c2n1 (single isomer, unassigned) [Example 103e] | 9.1 | < 100 | 6.9 | 8.7 | 1.8 |
| Cn1cc2nc(Oc3ccc(C(F)(F)F)cc3)cc([C@H]3C[C@@H]3C(=O)N3CC(O)C3)c2n1 (single isomer, unassigned) [Example 108b] | 9.1 | < 100 | 7.9 | 8.3 | 8.8 |
| CC(C)NC(=O)[C@@H]1C[C@H]1c1cc(Oc2ccc(C(F)(F)F)cc2)cc2cn(C)nc12 (single isomer, unassigned) [Example 56a] | 6.5 | 500 to 1000 | 5.4 | 2.6 | −0.3 |
| O=C(O)[C@@H]1C[C@H]1c1cc(Oc2ccc(C(F)(F)F)cc2)cc2c1NCCC2 (racemic) [Example 144] | 18.2 | 1000 to 30000 | 10.6 | 9.9 | 13.1 |
| CN1Cc2cc(-c3ccc(C(F)(F)F)cc3)cc(C3C[C@H]3C(=O)O)c2C1=O (mixture of isomers) [Example 15] | 5.1 | 100 to 500 | 5 | 3.7 | 1.2 |
| [2H]C([2H])([2H])NC(=O)[C@@H]1C[C@H]1c1cc(Oc2ccc(C(F)(F)F)cc2)cc2cn(C)nc12 (single isomer, unassigned) [Example 52] | 9.8 | 1000 to 30000 | 4.7 | 4.3 | −0.5 |
| O=C(O)[C@@H]1CC1c1cc(-c2ccc(C(F)(F)F)cc2)cc2c1cnn2C(F)F (mixture of isomers) [Example 9] | 4.1 | 100 to 500 | 5.8 | 5.6 | 1.2 |
| Cn1cc2cc(Oc3ccc(C(F)(F)F)cn3)cc([C@H]3C[C@@H]3C(=O)N3CC(O)C3)c2n1 (single isomer, unassigned) [Example 88b] | 10.9 | < 100 | 7.6 | 9.7 | 2.6 |
| CNS(=O)(=O)CCCc1cc(-c2ccc(C(F)(F)F)cc2)cc2cn(C)nc12 [Example 47] | 1.9 | 1000 to 30000 | 4.7 | 5.7 | −0.8 |
| CNS(=O)(=O)[C@@H]1CC1c1cc(Oc2ccc(C(F)(F)F)cc2)cc2cccnc12 (mixture of isomers) [Example 81] | 9.6 | 500 to 1000 | 5.5 | 8.2 | 8.9 |
